Test results taken from ChEMBL document CHEMBL4420068, “Samhd1 modulation for treating resistance to cancer therapy” (2018).
Converted amounts (≈) assume the structure as drawn. The source made the active and inactive calls. The calls are words filed in the database; no cut-off is given here.

Tests used:
THP-1 [1] = assay: Ratio of cytotoxic IC50 for human THP1 cells with constitutively expressing high SAMHD1 expression to cytotoxic IC50 for parental human THP1 cells expressing low SAMHD1 expression; assay type: functional
THP-1 [2] = assay: Ratio of cytotoxic IC50 for human THP1 (+/+) cells expressing wild type SAMHD1 to cytotoxic IC50 for human THP1 cells with CRISP/CAS9 SAMHD1 knockout; assay type: functional
[3] = target: Deoxynucleoside triphosphate triphosphohydrolase SAMHD1 (Homo sapiens) (UniProt Q9Y3Z3); assay: Substrate activity at SAMHD1 (unknown origin) expressed in bacterial system expressed in bacteria assessed as triphospho-hydolase activity by measuring cytarabine tri-phosphate […]
Sequence of Deoxynucleoside triphosphate triphosphohydrolase SAMHD1 (Homo sapiens) (Q9Y3Z3 whole entry): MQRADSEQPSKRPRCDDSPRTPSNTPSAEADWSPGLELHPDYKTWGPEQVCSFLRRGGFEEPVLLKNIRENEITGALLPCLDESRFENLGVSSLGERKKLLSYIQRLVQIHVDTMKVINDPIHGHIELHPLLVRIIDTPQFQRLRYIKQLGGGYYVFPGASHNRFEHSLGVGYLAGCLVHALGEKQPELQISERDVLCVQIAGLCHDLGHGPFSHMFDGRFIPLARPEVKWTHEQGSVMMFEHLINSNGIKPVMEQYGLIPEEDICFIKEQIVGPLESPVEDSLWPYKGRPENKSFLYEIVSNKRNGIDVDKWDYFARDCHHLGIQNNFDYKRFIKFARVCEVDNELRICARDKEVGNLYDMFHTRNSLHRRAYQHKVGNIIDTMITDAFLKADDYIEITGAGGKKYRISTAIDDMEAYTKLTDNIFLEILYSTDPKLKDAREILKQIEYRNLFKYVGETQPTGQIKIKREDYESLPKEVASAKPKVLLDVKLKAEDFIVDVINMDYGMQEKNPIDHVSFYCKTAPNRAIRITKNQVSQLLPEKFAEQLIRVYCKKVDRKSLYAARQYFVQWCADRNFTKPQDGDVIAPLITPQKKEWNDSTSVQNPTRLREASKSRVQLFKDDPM

U-251 = assay: Cytotoxic activity against human U251MG cells assessed as reduction in cell viability incubated for 96 hrs by MTT assay; assay type: functional, cell-based; conditions: U-251, 96 h
HEL = assay: Cytotoxic activity against human HEL cells assessed as reduction in cell viability at 10 to 50 ug/ml in presence of lentiviral protein X- virus-like particles incubated for 96 hrs by MTT assay; assay type: functional, cell-based
HL-60 = assay: Cytotoxic activity against human HL60 cells assessed as reduction in cell viability at 10 to 50 ug/ml in presence of lentiviral protein X- virus-like particles incubated for 96 hrs by MTT assay; assay type: functional, cell-based
MOLM-13 = assay: Cytotoxic activity against human MOLM13 cells assessed as reduction in cell viability at 10 to 50 ug/ml in presence of lentiviral protein X- virus-like particles incubated for 96 hrs by MTT assay; assay type: functional, cell-based

| SMILES | Ratio IC50 (THP-1 [1]) | Ratio IC50 (THP-1 [2]) | further results |
| --- | --- | --- | --- |
| Nc1ccn([C@@H]2O[C@H](CO)[C@@H](O)C2(F)F)c(=O)n1 [GEMCITABINE] | 0.5 | 1 | – |
| Nc1ncn([C@H]2C[C@H](O)[C@@H](CO)O2)c(=O)n1 [DECITABINE] | 6 | 9 | – |
| Nc1nc(F)nc2c1ncn2[C@@H]1O[C@H](CO)[C@@H](O)[C@@H]1O [FLUDARABINE] | 6 | – | – |
| COc1cccc2c1C(=O)c1c(O)c3c(c(O)c1C2=O)C[C@@](O)(C(C)=O)C[C@@H]3O[C@H]1C[C@H](N)[C@H](O)[C@H](C)O1 [DAUNORUBICIN] | 1 | 1 | – |
| Nc1nc2[nH]cnc2c(=S)[nH]1 [THIOGUANINE] | 1 | 1 | Activity [3]: Active |
| Nc1nc(Cl)nc2c1ncn2[C@H]1C[C@H](O)[C@@H](CO)O1 [CLADRIBINE] | 2 | 1 | – |
| COc1nc(N)nc2c1ncn2[C@@H]1O[C@H](CO)[C@@H](O)[C@@H]1O [NELARABINE] | 4 | – | – |
| Nc1ccn([C@@H]2O[C@H](CO)[C@@H](O)[C@@H]2O)c(=O)n1 [CYTARABINE] | – | – | IC50 (U-251): 0.022 µg/mL (≈ 0.0905 µM); Activity (HEL): Active; Activity (HL-60): Active; Activity (MOLM-13): Active; Activity [3]: Active |
| Nc1nc(Cl)nc2c1ncn2[C@@H]1O[C@H](CO)[C@@H](O)[C@@H]1F [CLOFARABINE] | 11 | – | – |
| NC(=O)c1ncn([C@@H]2O[C@H](CO)[C@@H](O)[C@H]2O)n1 [RIBAVIRIN] | 0.5 | 0.5 | – |
